The values below come from PubChem BioAssay AID1250 (SRMLSC, 2008).

Activity calls are given as the source filed them.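 The calls were made as follows: active = inhibition of at least 30% at one or more tested concentrations; inactive = inhibition below 30% at every dose.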

This test can be described thus: antiviral protection against BTV-induced cell death – arbovirus, BSR cells, confirmation (AID 1250). The following applies: BSR cells, Bluetongue virus CPE, ATP luminescence, 72 h; at 20 µM (top of the series).

With `COc1ccc(-c2noc(-c3cc(C)cc(C)c3)n2)cc1OC`, the CPE inhibition is 10% (inactive). The figure for `O=C1CC(c2ccc(Br)cc2)NC(c2ccc(Br)cc2)C1c1ccccc1` (centres undefined) is 7.99% (inactive); for `C=CCSc1nnc(NC(=O)CSc2nc3ccccc3o2)s1` it is 21.8% (inactive); for `Cc1ccc(S(=O)(=O)N2CCN(c3ccnc4cc(Cl)ccc34)CC2)cc1C` it is 10.9% (inactive). On to `CCOC(=O)C1(Cc2cccc(OC)c2)CCN(Cc2cccc(OC)c2O)CC1`, for which the CPE inhibition was 24.8% (inactive). Regarding `O=C(O)c1cnc(-c2ccccc2)nc1Sc1ccc(Cl)cc1`, the CPE inhibition is 15.2% (inactive). On to `Cc1cccc2c1nc(-c1ccccc1)n1nnnc21`, for which the CPE inhibition was -3.74% (inactive). The figure for `Cc1nn(CC(O)Cn2c3c(c4ccccc42)CCN(C)C3=O)c(C)c1Br` (centres undefined) is 22.4% (inactive); for `C=C(C)CN(CC)C(=O)CSc1nc(O)cc(=O)n1C1CCCC1` it is -1.91% (inactive). The figure for `Cc1ccc(S(=O)(=O)CCSc2cccc(C(=O)Nc3ccccc3C(=O)O)c2)cc1` is 28.2% (inactive); for `O=c1/c(=C/c2ccc(O)cc2)sc2n1CCCN=2` it is 1.41% (inactive). The figure for `COc1ccc2cc(-c3cc(C(=O)O)c4ccccc4n3)ccc2c1` is 12.7% (inactive); for `COc1ccc(-c2csc(Nc3ncccc3C)n2)cc1OC` it is 14.9% (inactive). As for `CC1CC(C)CN(c2nc(NCc3ccco3)nc(N)c2[N+](=O)[O-])C1` (centres undefined), the CPE inhibition is 25.5% (inactive). The figure for `CCCCOc1ccc(C(O)C(CN2CCCCC2)c2ccccc2)cc1` (centres undefined) is 12.5% (inactive); for `CCOC(=O)c1ccc(NC(=O)CC2S/C(=N/N=C/c3c[nH]c4ccccc34)NC2=O)cc1` (centres undefined) it is 11.7% (inactive); for `COc1ccc(C2=Nn3c(nnc3-c3ccncc3)SC2)cc1OC` it is 20.1% (inactive). As to `CCC(C)Sc1nc2c(c(=O)[nH]1)C(c1cccs1)C1=C(CCCC1=O)N2` (centres undefined), the CPE inhibition is 10.1% (inactive). The figure for `COc1ccc(OC)c(NC(=O)c2cc(-c3ccc(C)cc3O)n[nH]2)c1` is 9.4% (inactive); for `Oc1c(Br)cc(C2N=C(c3ccccc3)NO2)cc1Br` (centres undefined) it is 23.9% (inactive); for `COC(=O)c1ccccc1NC(=O)CN1CCC(n2nnc3cc(C(F)(F)F)ccc32)CC1` it is 16.3% (inactive). The figure for `CCOc1cccc(C(=O)Nc2ccccc2N2CCN(C(=O)C(C)C)CC2)c1` is 9.61% (inactive); for `COc1ccc2c(c1)c1nc3ccccc3nc1n2Cc1ccc(OC)c(OC)c1` it is 15.8% (inactive); for `Cc1ccc2nc(-c3ccc(Br)o3)oc(=O)c2c1` it is 21.3% (inactive). The figure for `O=C(O)c1ccccc1Nc1ccc([N+](=O)[O-])cc1` is 24.6% (inactive); for `CC(C)CC1=NN2C(=N)/C(=C\c3coc4ccccc4c3=O)C(=O)N=C2S1` it is 13.5% (inactive). On to `O=C(O)c1ccccc1Sc1c([N+](=O)[O-])cc(C(F)(F)F)cc1[N+](=O)[O-]`, for which the CPE inhibition was 9.2% (inactive). The figure for `CCSc1nnc(NC(=O)c2ccc(Br)s2)s1` is 16.8% (inactive); for `CCC1=NN2C(=N)/C(=C\c3cccn3-c3ccc(C)cc3C)C(=O)N=C2S1` it is 27.2% (inactive); for `Cc1cc(C(=O)CSc2nnc(-c3ccco3)o2)c(C)n1Cc1ccco1` it is 2.98% (inactive). As to `Cc1ccc(NC(=O)/C(=C/C=C/c2ccccc2)NC(=O)c2ccccc2)cc1`, the CPE inhibition was 19.4% (inactive). The figure for `Cc1ccccc1S(=O)(=O)Nc1ncnc2scc(-c3ccccc3)c12` is 20.4% (inactive). The figure for `c1coc(CNc2c3c(nc4ncnn24)CCCC3)c1` is 13.4% (inactive); for `N#C/C(=C\c1cn[nH]c1-c1ccc(Cl)cc1)C(=O)NCc1ccccc1` it is 12.6% (inactive).
